From patent US12378201B2, “Histone demethylase inhibitors for treating cancers” (The Board of Regents of the University of Texas System, priority 2019, dated 2025)

Assays:
[1] = system: 22rv1; test: Effect on 22rv1 cell viability
Method: (§1) The initial interest was to see the importance of length of side chain on B-3. […] Relative cell growth can be assessed using the MTT (3-(4,5-dimethylthiazol-2-yl)-2,5-diphenyltetrazolium bromide) assay, a colorimetric assay for assessing cell metabolic activity. Cells (1000 to 2000 cells/well) in 150 μL culture medium were seeded in wells of a 96-well plate one day before various concentrations of drugs were added. After continuing culture in the presence of the drugs for the indicated time (3-4 days), 20 μL of 5 mg/mL MTT solution (Sigma-Aldrich) was added into each well. After incubation at 37° C. for 30 min, the culture medium was removed and 100 μL of DMSO was added to dissolve MTT crystals. Plates were shaken for 15 min at room temperature and absorbance at OD590 was read by plate reader.

[2] = system: LNCaP and 22rv1 cell lines; test: SAR statements on LNCaP and 22rv1 cell lines; type: cell-based; conditions: LNCaP 1 μM, 22rv1 0.5 μM
Method: All compounds were evaluated for their effects on LNCaP and 22rv1 cell lines at 1 and 0.5 μM concentrations, respectively. […] For this purpose different analogues of B-3 with chain length varying from 0 to 4 carbon were synthesized (Table 1). […] In view of the availability of a variety of commercially available benzyl amines over phenyl propyl amines and method to functionalize analogues with 1C chain compound 14c was selected for further modification.

[3] = system: LnCap cells; test: Effect on LnCap cell viability; conditions: 1 μM
Method: as §1

[4] = system: prostate and kidney cancer cells; test: Cell growth inhibition / anti-proliferation (MTT); type: cell-based, human
Excerpt: Results of MTT assays for compounds disclosed herein can be found in FIGS. 1, 2A-2C, 3, 4, 5, 6, 7, 8, 9, 10A-10C, and 11A-11C.

[5] = system: castration resistant prostate cancer cell line 22RV1; test: 22RV1 xenograft tumor growth in NOD/SCID mice; type: in vivo; conditions: in words
Method: All animal work was approved by the Institutional Animal Care and Use Committee. NOD/SCID mice (6-8 weeks old) were subcutaneously injected in the flank region with castration resistant prostate cancer cell line 22RV1 (1×10^6 cells/site) mixed with 50% Matrigel (BD Biosciences). When tumor volumes reached 50-100 mm^3 in size, animals were randomly divided into 5 groups: control (DMSO); B3 (50 or 10 mg/kg in DMSO); SS-79N (20 or 10 mg/kg in DMSO). Each group included six mice. Tumor volume (cubic millimeters) was measured by caliper twice a week and calculated by using the ellipsoid formula (π/6×length×width×depth, see FIGS. 12A-12B).

[6] = system: KDM4; conditions: previous report; cited from earlier work
[7] = system: cancer cell lines including PC3; conditions: previous report; includes PC3 cells lacking AR; cited from earlier work
[8] = system: KDM4B-regulated AR-V7 expression; conditions: previous report; cited from earlier work

## O=C(NCc1ccc(Oc2ccccc2)cc1)c1cccc(-c2cc(O)c3ncccc3c2)c1 [Compound 16a]
[1]; at 1 μM (stated in cell)
  % Cell Viability of 22rv1 at 1 μM: 29.5%
[2]
  activity on cell lines, in words (SAR): significant improvement of activity over B-3

## O=C(NCc1ccc(C(=O)NC2CCC(C(F)(F)F)CC2)cc1)c1cccc(-c2cc(O)c3ncccc3c2)c1 (stereo not drawn) [Compound 17l]
[3]
  % Cell Viability of LnCap cells at 1 μM: 24.2%
[4]; IC50 versus B3
  increase in potency compared to other 8-hydroxyquinoline-containing compounds, such as B3: more than 20 fold
[4]; in words
  efficacy compared with the known GSK KDM6B inhibitor: much better efficacy than the known GlaxoSmithKline (GSK) KDM6B inhibitor
[4]; prostate and kidney cancer cells
  IC50: < 200 nM
[5]
  in vivo efficacy: favorable in vivo efficacy
[2]
  activity on cell lines, in words (SAR): improved further

## O=C(NCc1ccc(C(=O)NC2CCCCC2)cc1)c1cccc(-c2cc(O)c3ncccc3c2)c1 [Compound 17j]
[1]; 0.5 μM
  % Cell Viability of 22rv1 at 0.5 μM: 5.0%
[2]
  activity on cell lines, in words (SAR): significant jump in activity compared to B-3

## O=C(NCCCc1ccccc1)c1cccc(-c2cc(O)c3ncccc3c2)c1 [Compound B-3, reference compound]
[1]; Homo sapiens, 22Rv1, read-out: % Cell Viability of 22rv1 at 0.5 μM
  viability at 0.5 µM: 63.6%
[1]; Homo sapiens, 22Rv1, read-out: % Cell Viability of 22rv1 at 1 μM
  viability at 1 µM: 42.5%
[6]
  KDM4 inhibition, in words: highly selective and potent KDM4 inhibitor
[7]
  effectiveness against cancer cell lines, in words: highly effective against a variety of cancer cell lines including PC3
[8]
  inhibition of KDM4B-regulated AR-V7 expression, in words: able to inhibit KDM4B-regulated AR-V7 expression
